Going from OCc1cccnc1 to c1ccc(-c2cccnc2)cc1, the boiling point rises from 266 °C to 272 °C.

First: CCCCOC(=O)CCC
Second: CCCB(CCC)CCC
The boiling point of the first is higher: 166 °C for the first, 159 °C for the second.

Going from O=C(C(Cl)Cl)C(Cl)Cl to OCC(Cl)CCl (centres undefined), the boiling point rises from 183 °C to 184 °C.

Going from C=C[Si](C)(C)OCC to C=C[Si](C)(C)O[Si](C)(C)C=C, the boiling point falls from 99 °C to 39 °C.

Compared with Cc1ccno1, CC(=O)Oc1ccc(C)c(C)c1 is higher in boiling point: 122 °C for the first, 235 °C for the second.

Going from O=CC1CCC=CO1 (centres undefined) to CC1(C)CC=CC1, the boiling point falls from 146 °C to 88 °C.

Going from CN(C)c1ccccc1Cl to COC(=O)c1ccccc1OC, the boiling point rises from 205 °C to 246 °C.

Compared with CCc1ccc(C(C)C)cc1, CCC(C)c1ccc(N)cc1 (centres undefined) is higher in boiling point: 197 °C for the first, 238 °C for the second.

Going from CNCCNC to CCCN(C)C, the boiling point falls from 120 °C to 66 °C.

Going from CCCC(C)C(C)(C)CC (centres undefined) to CCCC(C)CCN (centres undefined), the boiling point falls from 162 °C to 149 °C.

First: CCCCCCCCCCCCCCCCCCCC
Second: CCCCCCCCN(C)C
The boiling point of the first is higher: 343 °C for the first, 191 °C for the second.

Going from O=C(Cl)OCc1ccccc1 to NCc1ccccc1, the boiling point rises from 152 °C to 185 °C.

Compared with C#CCBr, CC(Br)(Br)CBr is higher in boiling point: 89 °C for the first, 190 °C for the second.

Going from Cc1cccc2c1CCCC2C (centres undefined) to CC1CCCCC1=O (centres undefined), the boiling point falls from 239 °C to 162 °C.

First: CCC(C)(CO)CO
Second: CCC(C)CO (centres undefined)
The boiling point of the first is higher: 226 °C for the first, 128 °C for the second.

First: CCC(O)(CC)CC
Second: CCC(=O)CCC(C)C
The boiling point of the first is lower: 142 °C for the first, 164 °C for the second.

Going from CCC(CC)C(C)C(C)C (centres undefined) to CC[C@H](C)[C@@H](C)[C@@H](C)O, the boiling point rises from 162 °C to 166 °C.

First: COS(=O)OC
Second: COOC
The boiling point of the first is higher: 126 °C for the first, 14 °C for the second.

Going from Cc1ccc2nc(-c3ccc(N)cc3)sc2c1 to Nc1ccc(Nc2ccccc2)cc1, the boiling point falls from 434 °C to 354 °C.

Going from COC(=O)/C=C\C(=O)OC to CC(C)=CCCC(C)=CC(=O)O, the boiling point rises from 198 °C to 250 °C.

Compared with CCCCc1ccc2ccccc2c1, c1ccc(CCCC2CCCC2)cc1 is lower in boiling point: 292 °C for the first, 272 °C for the second.

Going from CCC#N to CSCCl, the boiling point rises from 97.1 °C to 105 °C.

First: N#Cc1c(Cl)cccc1Cl
Second: COc1ccc(C#N)cc1
The boiling point of the first is higher: 270 °C for the first, 256 °C for the second.

First: COc1ccc(Br)cc1
Second: CCOC(=O)c1ccc(O)cc1
The boiling point of the first is lower: 215 °C for the first, 298 °C for the second.

Compared with O=C(O)C1CCCC1, OCCC1CCCCC1 is lower in boiling point: 212 °C for the first, 208 °C for the second.

Compared with FC(F)OC(F)C(F)(F)F (centres undefined), FC(F)=C(F)C(F)(F)F is lower in boiling point: 23.5 °C for the first, -29.6 °C for the second.

Going from CN to CC(O)C(C)C(C)O (centres undefined), the boiling point rises from -6.3 °C to 212 °C.

First: CC1CNCC(C)C1 (centres undefined)
Second: C=C1C=CC(C(C)C)CC1 (centres undefined)
The boiling point of the first is lower: 144 °C for the first, 172 °C for the second.

Compared with c1ccc(-c2ccc(-c3ccccc3)o2)cc1, Cl[Si](Cl)(Cl)CCc1ccccc1 is lower in boiling point: 344 °C for the first, 242 °C for the second.

Compared with CCOC(OCC)C(Cl)(Cl)Cl, CCc1cccc(C)c1N(C(=O)CCl)[C@@H](C)COC is higher in boiling point: 197 °C for the first, 282 °C for the second.

Going from CCCCC(C)CC(C)C (centres undefined) to CC(C)CCSSCCC(C)C, the boiling point rises from 156 °C to 247 °C.

Fc1c(F)c(F)c(-c2c(F)c(F)c(F)c(F)c2F)c(F)c1F gave a boiling point of 206 °C.

Going from OCc1cccnc1 to c1ccc(-c2cccnc2)cc1, the melting point rises from -6.5 °C to 164 °C.

First: CCCCOC(=O)CCC
Second: CCCCN(CCCC)C(C(N)=O)c1ccc(OC)cc1 (centres undefined)
The melting point of the first is lower: -91.5 °C for the first, 134 °C for the second.

Going from C[C@]12CC[C@H](O)CC1=CC[C@@H]1[C@@H]2CC[C@@]2(C)[C@H]1CC[C@]2(C)O to CC(C)(C)CC(=O)OCC(=O)[C@@]12OC(C)(C)O[C@@H]1C[C@H]1[C@@H]3CCC4=CC(=O)C=C[C@]4(C)[C@@]3(F)[C@@H](O)C[C@@]12C, the melting point rises from 206 °C to 295 °C.

Compared with O=[N+]([O-])c1c(Cl)ncnc1Cl, CC(=O)c1cc(Cl)ccc1Cl is lower in melting point: 102 °C for the first, 12 °C for the second.

First: OCc1ccccc1I
Second: COc1ccccc1CC(=O)O
The melting point of the first is lower: 92 °C for the first, 124 °C for the second.

Compared with CC(C)Nc1nc(Cl)nc(NC2CC2)n1, Nc1nc(N)nc(-c2ccccc2)n1 is higher in melting point: 167 °C for the first, 226 °C for the second.

First: CCCCCCCCCCCCCCCCCCCC
Second: CCCCCCCCCCCCCCCCCCCCCCCCCCCCCCCCCCCC
The melting point of the first is lower: 36.8 °C for the first, 76.5 °C for the second.

Going from CCOP(=S)(OCC)SC1OCCOC1SP(=S)(OCC)OCC (centres undefined) to CCC(C)(S(=O)(=O)CC)S(=O)(=O)CC, the melting point rises from -20 °C to 76 °C.

Compared with CCCCCCCCCCCCNC(=O)C[N+](C)(C)Cc1ccccc1.[Cl-], O=C(O)CCCCCCCCCCCCCCCO is lower in melting point: 148 °C for the first, 98 °C for the second.

Going from NC(N)=Nc1nc(CSCCC(N)=NS(N)(=O)=O)cs1 to NC(=O)NCCCC(N)C(=O)O (stereo in doubt), the melting point rises from 164 °C to 236 °C.

Going from Cc1cccc(C)c1N(Cn1cccn1)C(=O)CCl to CC(=O)Oc1ccc(C)c(C)c1, the melting point falls from 85 °C to 22 °C.

First: CCC(C)(CO)CO
Second: CCC(O)(CC)CC
The melting point of the first is higher: 40.3 °C for the first, -12.5 °C for the second.

First: CC(C)NCC(O)c1ccc([N+](=O)[O-])cc1 (centres undefined)
Second: O=[N+]([O-])c1ccc(N=C=S)cc1
The melting point of the first is lower: 98 °C for the first, 111 °C for the second.

Going from Cc1cc(O)c(C(C)C)cc1C1(c2cc(C(C)C)c(O)cc2C)OC(=O)c2ccccc21 to O=c1c(O)c(-c2ccc(O)cc2)oc2cc(O)cc(O)c12, the melting point rises from 253 °C to 277 °C.

Going from CCc1cc2c(cc1C(C)=O)C(C)(C)CCC2(C)C to CCc1ccc(C(=O)NN(C(=O)c2cc(C)cc(C)c2)C(C)(C)C)cc1, the melting point rises from 46.5 °C to 191 °C.

First: OCCNCCNCCO
Second: CCCB(CCC)CCC
The melting point of the first is higher: 97.5 °C for the first, -56 °C for the second.

Compared with Cc1ccc2nc(-c3ccc(N)cc3)sc2c1, Cc1ccc2sc(C)nc2c1 is lower in melting point: 195 °C for the first, 38 °C for the second.

Going from CCCCc1ccc2ccccc2c1 to COc1ccc(CCCC(=O)O)cc1, the melting point rises from -5 °C to 57.5 °C.

First: Nc1ccc(Nc2ccccc2)cc1
Second: O=[N+]([O-])c1ccc(N=Nc2ccccc2)cc1
The melting point of the first is lower: 66 °C for the first, 133 °C for the second.

Compared with CCC#N, N#CCCN1CCCCC1 is higher in melting point: -92.8 °C for the first, -6.8 °C for the second.

Going from O=C(OOC(=O)c1ccccc1)c1ccccc1 to c1ccc(OCCOc2ccccc2)cc1, the melting point falls from 105 °C to 98 °C.

Going from N#Cc1c(Cl)cccc1Cl to COc1ccc(C#N)cc1, the melting point falls from 144 °C to 61.5 °C.

Compared with COc1cc2nc(N3CCN(C(=O)c4ccco4)CC3)nc(N)c2cc1OC, CCOC(=O)c1cnn(C)c1S(=O)(=O)NC(=O)Nc1nc(OC)cc(OC)n1 is lower in melting point: 279 °C for the first, 182 °C for the second.

First: COc1ccc(Br)cc1
Second: CCOC(=O)c1ccc(O)cc1
The melting point of the first is lower: 13.5 °C for the first, 117 °C for the second.

Going from O=C(O)C1CCCC1 to OCCC1CCCCC1, the melting point falls from -7 °C to -20 °C.

First: O=c1[nH]c(=O)n([C@H]2C[C@H](O)[C@@H](CO)O2)cc1Br
Second: COC(=O)c1ccc(C(=O)OC)o1
The melting point of the first is higher: 192 °C for the first, 112 °C for the second.

Compared with CC(C)=NNc1ccccc1, COC(=O)Nc1nc2cc(C(=O)c3ccccc3)ccc2[nH]1 is higher in melting point: 42 °C for the first, 288 °C for the second.

Compared with O=C(O)c1ccc(I)cc1, c1ccc(-c2ccc(-c3ccccc3)o2)cc1 is lower in melting point: 270 °C for the first, 91 °C for the second.

Going from CCCCCCCCN(C)C to CCNC(=S)NCC, the melting point rises from -57 °C to 78 °C.

Going from Cc1c(Cl)c(Cl)cc(Cl)c1Cl to O=C(NC(=O)c1c(F)cccc1F)Nc1cc(Cl)c(OC(F)(F)C(F)C(F)(F)F)cc1Cl (centres undefined), the melting point rises from 93.5 °C to 166 °C.

Going from C1SSCSSS1 to C=C[Si](C)(C)O[Si](C)(C)C=C, the melting point falls from 60.5 °C to -99.7 °C.

First: Fc1c(F)c(F)c(-c2c(F)c(F)c(F)c(F)c2F)c(F)c1F
Second: FC(F)=C(F)C(F)(F)F
The melting point of the first is higher: 67.5 °C for the first, -156 °C for the second.

c1ccc2cc(Nc3ccc(Nc4ccc5ccccc5c4)cc3)ccc2c1 gave a melting point of 235 °C.

Compared with CCCCOC(=O)CCC, CCCCCCCCCCCCCCCCCCCC is lower in log10 vapour pressure (mmHg): 0.258 for the first, -5.34 for the second.

First: CC(C)Nc1nc(Cl)nc(NC2CC2)n1
Second: C=C1C=CC(C(C)C)CC1 (centres undefined)
The log10 vapour pressure (mmHg) of the first is lower: -6.52 for the first, 0.2 for the second.

Compared with O=C(Cl)OCc1ccccc1, NCc1ccccc1 is higher in log10 vapour pressure (mmHg): -2.51 for the first, -0.185 for the second.

First: COCC(=O)N(c1c(C)cccc1C)C(C)C(=O)OC (centres undefined)
Second: CCc1ccc(C(=O)NN(C(=O)c2cc(C)cc(C)c2)C(C)(C)C)cc1
The log10 vapour pressure (mmHg) of the first is higher: -4.93 for the first, -7.65 for the second.

First: COC(=O)/C=C\C(=O)OC
Second: O=C[C@H](O)C(O)[C@H](O)CO (stereo in doubt)
The log10 vapour pressure (mmHg) of the first is higher: -0.523 for the first, -9.71 for the second.

First: Nc1ccc(Nc2ccccc2)cc1
Second: O=[N+]([O-])c1ccc(N=Nc2ccccc2)cc1
The log10 vapour pressure (mmHg) of the first is higher: -4.92 for the first, -5.93 for the second.

Going from CCC#N to CCC(C)CO (centres undefined), the log10 vapour pressure (mmHg) falls from 1.68 to 0.494.

First: CC1CCCCC1=O (centres undefined)
Second: OCCC1CCCCC1
The log10 vapour pressure (mmHg) of the first is higher: 0.352 for the first, -0.78 for the second.

First: N#Cc1c(Cl)cccc1Cl
Second: COc1ccc(Br)cc1
The log10 vapour pressure (mmHg) of the first is lower: -3.18 for the first, -0.692 for the second.

First: FC(F)OC(F)C(F)(F)F (centres undefined)
Second: FC(F)=C(F)C(F)(F)F
The log10 vapour pressure (mmHg) of the first is lower: 2.82 for the first, 3.69 for the second.

With CN the log10 vapour pressure (mmHg) was 3.42.

With CCCCCCCCCCCCCCCCCCCC the log10 biodegradation half-life (days) was 1.4.

For CCCCCCCCCCCCCCCCCCCC, the ready biodegradability was “readily biodegradable”.
For COCC(=O)N(c1c(C)cccc1C)C(C)C(=O)OC (centres undefined), the ready biodegradability was “not readily biodegradable”.
With Nc1nc(N)nc(-c2ccccc2)n1 the ready biodegradability was “not readily biodegradable”.
With O=C(OOC(=O)c1ccccc1)c1ccccc1 the ready biodegradability was “readily biodegradable”.
With CN the ready biodegradability was “readily biodegradable”.
For CCCCCCCCCCCCCCCCCCCCCCCCCCCCCCCCCCCC, the ready biodegradability was “readily biodegradable”.
In the case of CCOC(=O)c1ccc(O)cc1, the ready biodegradability is reported as “readily biodegradable”.
With NCc1ccccc1 the ready biodegradability was “readily biodegradable”.

First: COCC(=O)N(c1c(C)cccc1C)C(C)C(=O)OC (centres undefined)
Second: CCOC(=O)c1ccc(O)cc1
The log10 Koc (L/kg) of the first is lower: 1.57 for the first, 2.21 for the second.

Work on N#Cc1c(Cl)cccc1Cl yielded a log10 Koc (L/kg) of 2.5.

Going from Cc1cccc(C)c1N(Cn1cccn1)C(=O)CCl to Clc1cccc(-c2c(Cl)c(Cl)c(Cl)c(Cl)c2Cl)c1Cl, the log10 Henry constant (atm·m³/mol) rises from -9.25 to -4.85.

Going from C#CCBr to CCC#N, the log10 Henry constant (atm·m³/mol) falls from -2.95 to -4.43.

CN and CCC(C)CO (centres undefined) are within 0.2 log units of each other in log10 Henry constant (atm·m³/mol): -4.95 for the first, -4.85 for the second.

First: CCC#N
Second: CN
The log10 Koa of the first is higher: 2.69 for the first, 1.9 for the second.
